Counter-ions that a name gives are not always drawn.
Tested on: not given
Assay: not given
Settings: not given

| Compound | melting point |
| --- | --- |
| COc1cc(CN2CCN(c3ccccc3F)CC2)ccc1OC(=O)N(C)C | 130 to 133 °C |
| CNC(=O)Oc1ccc(CN2CCN(c3ccc([N+](=O)[O-])cc3)CC2)cc1OC | 155 to 157 °C |
| COc1cc(CN2CCN(c3ccccn3)CC2)ccc1OC(=O)N(C)C [Example 40] | 140 to 145 °C |
| C#CCOc1cc(C=O)ccc1OS(C)(=O)=O | 81 to 83 °C |
| CNC(=O)Oc1ccc(CN2CCc3cc(OC)c(OC)cc3C2)cc1OC (as salt: hydrochloride) [Example 42, 2-[3-Methoxy-4-(methylaminocarbonyloxy)phenylmethyl]-1-(6,7-dimethoxy)-1,2,3,4-tetrahydroisoquinoline Hydrochloride] | 205 to 208 °C (dec.) |
| C#CCOc1cc(CN2CCc3cc(OC)c(OC)cc3C2)ccc1OC (as salt: hydrochloride) [Example 36, 6,7-Dimethoxy-N-[(4-methoxy)-3-(propargyloxy)phenylmethyl]-1,2,3,4-tetrahydroisoquinoline Hydrochloride] | 220 to 222 °C (dec.) |
| CCOC(=O)COc1cc(C=O)ccc1OCc1ccccc1 | 36 to 43 °C |
| COc1cc(CN2CCN(c3ccccc3Cl)CC2)ccc1OC(=O)N(C)C.Cl | 190 to 193 °C |
| COc1cc(CN2CCN(c3ccccc3OC)CC2)ccc1OC(=O)N(C)C (as salt: hydrochloride) [Example 49, 1-[[4-(Dimethylaminocarbonyloxy)-3-(methoxy)phenyl]methyl]-4-(2-methoxyphenyl)piperazine Dihydrochloride] | 196 to 206 °C |
| COC1(OCCO)CCN(Cc2ccccc2)C1 (stereo not shown) | 55 to 57 °C |

Target: T1, acetylcholinesterase (Rattus norvegicus, UniProt P37136)
T1 construct: corpora striata dissected free, weighted and homogenized in 19 volumes (approximately 7 mg protein/ml) of 0.05M Phosphate Buffer; from tissue; host or cells: rat brain corpora striata, crude homogenate
T1 sequence (P37136 32-614): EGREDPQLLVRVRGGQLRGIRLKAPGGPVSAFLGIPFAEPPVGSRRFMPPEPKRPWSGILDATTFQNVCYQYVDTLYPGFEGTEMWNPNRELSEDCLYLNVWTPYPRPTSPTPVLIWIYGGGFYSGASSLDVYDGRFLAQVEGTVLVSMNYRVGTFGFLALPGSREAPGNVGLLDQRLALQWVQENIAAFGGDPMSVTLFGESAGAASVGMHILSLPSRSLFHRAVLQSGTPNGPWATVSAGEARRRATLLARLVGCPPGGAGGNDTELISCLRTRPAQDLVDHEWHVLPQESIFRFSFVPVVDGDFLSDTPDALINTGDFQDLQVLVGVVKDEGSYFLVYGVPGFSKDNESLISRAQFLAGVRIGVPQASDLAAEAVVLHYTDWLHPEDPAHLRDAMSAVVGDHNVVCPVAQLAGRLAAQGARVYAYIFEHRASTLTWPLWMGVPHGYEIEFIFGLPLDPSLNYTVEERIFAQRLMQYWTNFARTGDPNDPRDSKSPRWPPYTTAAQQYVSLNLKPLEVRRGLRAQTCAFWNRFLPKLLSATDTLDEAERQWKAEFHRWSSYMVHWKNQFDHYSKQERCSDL
Assay: biochemical
Settings: Male Wistar rat corpora striata homogenate; preincubated 10 minutes at 37° C.; acetylthiocholine substrate 5 millimolar final; log-probit analysis; read-out: Inhibition of Acetylcholinesterase Activity IC50
Experimental: 1. 0.05M Phosphate Buffer (pH 7.2)
A solution of monobasic sodium phosphate monohydrate (6.85 g) in distilled water (100 ml) is added to a solution of dibasic sodium phosphate heptahydrate (13.4 g) and distilled water (100 ml) until a pH of 7.2 was attained. The solution was diluted 1 to 10 with distilled water.
3. 5,5-Dithiobisnitrobenzoic acid in Buffer
The 0.05M Phosphate Buffer (pH 7.2) was added to 5.5-dithiobisnitrobenzoic acid to a total volume of 100 ml, i.e., a quantity sufficient (gs) to 100 ml.
4. Stock Solution of Drug
A 2 millimolar stock solution of the test drug is prepared in a quantity sufficient of either acetic acid or dimethyl sulfoxide to volume with 5,5-dithiobisnitrobenzoic acid in Buffer. Stock Solution of Drug is serially diluted (1:10) so that the final cuvette concentration is 10^−4 molar.
Male Wistar rats are decapitated, brains rapidly removed, corpora striata dissected free, weighted and homogenized in 19 volumes (approximately 7 mg protein/ml) of 0.05M Phosphate Buffer (pH 7.2) using a Potter-Elvejhem homogenizer. A 25 μl aliquot of this suspension is added to 1 ml of the vehicle or various concentrations of the test drug and preincubated for 10 minutes at 37° C. Enzyme activity is measured with a Beckman DU-50 spectrophotometer with the following software and instrument settings:
Reagents are added to the blank and sample cuvettes as follows:
Blank values are determined for each run to control for non-enzymatic hydrolysis of substrate and these values are automatically subtracted by the Kindata program available on kinetics soft-pac module. This program also calculates the rate of absorbance change for each cuvette.
Substrate concentration is 10 millimolar diluted 1:2 in assay yielding final concentration of 5 millimolar. 5,5-dithiobisnitrobenzoicacid concentration is 0.5 millimolar yielding 0.25 millimolar final concentration. [formula]
IC50 values are calculated from log-probit analysis

| Compound | IC50 [nM] |
| --- | --- |
| CNC(=O)Oc1cc(CN2CCN(c3ccccn3)CC2)ccc1OC [Example 38, 4-[[4-Methoxy-3-(methylaminocarbonyloxy)]phenylmethyl]-1-(pyridin-2-yl)piperazine Dihydrochloride] | 2390 |
| 4-(Methylaminocarbonyloxy)-3-(propargyloxy)1-(pyrrolidinomethyl)benzene Citrate [Example 17] | 3.6 |
| COc1cc(CN2CCN(c3ccccn3)CC2)c(Br)cc1OC(=O)N(C)C [Example 67, N-(2-Bromo-4-[dimethylcarbamoyloxy]-5-methoxy)benzyl-N′-(pyridin-2-yl)-piperazine] | 18 |
| CNC(=O)Oc1ccc(CN2CCN(c3ccccn3)CC2)cc1OC [Example 35, 4-[[3-Methoxy-4-(methylaminocarbonyloxy)]phenylmethyl]-1-(pyridin-2-yl)piperazine Hydrochloride Monohydrate] | 536 |
| COc1cc(C(C)N2CCN(c3ccccn3)CC2)ccc1OC(=O)N(C)C (stereo not shown) [Example 78, 1-[1-(4-N,N-Dimethylcarbamoyloxy-3-methoxyphenyl)ethyl]-4-pyridin-2-yl-piperazine Dihydrochloride] | 358 |

Same assay, conditions: read-out: Inhibition of Acetylcholinesterase Activity IC50

| Compound | IC50 [nM] |
| --- | --- |
| CC(c1ccc(OC(=O)N(C)C)c(F)c1)N1CCN(c2ccccn2)CC1 (stereo not shown) [Example 74, 1-[1-(4-N,N-Dimethylcarbamoyloxy-3-fuorophenyl)ethyl]-4-pyridin-2-yl-piperazine] | 14000 |

Source: patent US6479495B1, “Aminoalkylphenol derivatives and related compounds” (priority 1997, dated 2002)
